From patent US20240148821A1, “PHARMACEUTICAL USE OF CYCLIC PEPTIDE COMPOUND” (CHUGAI SEIYAKU KABUSHIKI KAISHA, priority 2021, published 2024)
Numbered stars: 1 amine (or outer) side, 2 acyl side, 3 side chain; on linkers, the order of the positions; unused ones are H or OH. Bridge positions count the residues as written; N and C are the ends. Square brackets hold non-standard residues; d marks the D form. Peptide text beside a SMILES is read from it. * marks the point of attachment. hPhe(3-Cl-4-CF3) = N[C@@H](CCc1ccc(C(F)(F)F)c(Cl)c1)C(=O)O; hPhe(3-F,4-CF3) = N[C@@H](CCc1ccc(C(F)(F)F)c(F)c1)C(=O)O; X37 = CC(C)(C)NC(=O)COC[C@H](CC(=O)[*:1])N[*:2]; NMePhe(3-F) = CN[C@@H](Cc1cccc(F)c1)C(=O)O; hPhe(3-Cl) = N[C@@H](CCc1cccc(Cl)c1)C(=O)O; NMeGly(cPent) = CN[C@H](C(=O)O)C1CCCC1; NMeGly(cBu) = CN[C@H](C(=O)O)C1CCC1; NMeCha = CN[C@@H](CC1CCCCC1)C(=O)O; NMeChg = CN[C@H](C(=O)O)C1CCCCC1; NMeD = CN[C@@H](CC(=O)O)C(=O)O; NMeL = CN[C@@H](CC(C)C)C(=O)O; NMeV = CN[C@H](C(=O)O)C(C)C; d(β3hA) = C[C@@H](N)CC(=O)O; NMeS = CN[C@@H](CO)C(=O)O; hSer = N[C@@H](CCO)C(=O)O; Morpholide = C1CN(*)CCO1; NMeA = CN[C@@H](C)C(=O)O; NMeAib = CNC(C)(C)C(=O)O; Piperidide = C1CCN(*)CC1; Ac5c = NC1(C(=O)O)CCCC1; Aze = O=C(O)[C@@H]1CCN1; Nleu = CC(C)CNCC(=O)O; X113 = Fc1cncc(C*)c1; Sar = CNCC(=O)O; Propyl = CCC*

The compounds below were run on Human pancreatic cancer cell line AsPC-1 (G12D mutation Kras) (assay: AsPC-1 cell growth inhibition (AsPC-1 CGI)). Conditions: read-out: AsPC-1 cell growth inhibition, 50% growth inhibitory concentration (IC50 value); 96 hours, CellTiter-Glo, values classified in ranges.
Format: cell-based
Procedure: Test compounds were serially dilated with dimethyl sulfoxide, and 200 nL was then dispensed to a U-bottom 96-well plate using Labcyte Echo. […] The cell suspension was dispensed to a. plate containing a test compound at 100 μL per well and incubated at 37° C. in a 5% carbon dioxide gas incubator. 96 hours later, 80 μL of CellTiter-Glo (Promega) was added to each well and fluorescence was measured.

SMILES	IC50 [nM]
CC[C@H](C)[C@@H]1NC(=O)[C@H](CC(C)C)N(C)C(=O)C[C@@H](C(=O)N2CCCCC2)N(C)C(=O)[C@H](C2CCCCC2)N(C)C(=O)C2(CCCC2)NC(=O)[C@@H]2CCCN2C(=O)[C@H](CCc2ccc(C(F)(F)F)c(Cl)c2)NC(=O)CN(C)C(=O)[C@H](C2CCC2)N(C)C(=O)CN(C)C(=O)CN(C)C1=O [Compound 936] ([NMeL]I[Sar][Sar][NMeGly(cBu)][Sar][hPhe(3-Cl-4-CF3)]P[Ac5c][NMeChg][NMeD]-Piperidide; lactam N-11)	> 500
COCC[C@@H]1NC(=O)[C@H](CC(C)C)N(C)C(=O)C[C@@H](C(=O)N2CCCCC2)N(C)C(=O)[C@H](C2CCCCC2)N(C)C(=O)C2(CCCC2)NC(=O)[C@@H]2CCCN2C(=O)[C@H](CCc2ccc(C(F)(F)F)c(Cl)c2)NC(=O)CN(C)C(=O)[C@H](CC2CCCCC2)N(C)C(=O)CN(C)C(=O)CN(C)C1=O [Compound 941] ([NMeL][hSer](Me)[Sar][Sar][NMeCha][Sar][hPhe(3-Cl-4-CF3)]P[Ac5c][NMeChg][NMeD]-Piperidide; lactam N-11)	> 500
CC[C@H](C)[C@@H]1NC(=O)[C@H](C)N(C)C(=O)C[C@@H](C(=O)N2CCCCC2)N(C)C(=O)[C@H](C(C)C)N(C)C(=O)C2(CCCC2)NC(=O)[C@H](Cc2cccc(F)c2)N(C)C(=O)[C@H](CCc2ccc(C(F)(F)F)c(Cl)c2)NC(=O)CN(C)C(=O)[C@H](CC2CCCCC2)N(C)C(=O)CN(C)C(=O)CN(C)C1=O [Compound 945] ([NMeA]I[Sar][Sar][NMeCha][Sar][hPhe(3-Cl-4-CF3)][NMePhe(3-F)][Ac5c][NMeV][NMeD]-Piperidide; lactam N-11)	> 500
CC[C@H](C)[C@@H]1NC(=O)[C@H](CC(C)C)N(C)C(=O)C[C@@H](C(=O)N2CCCCC2)N(C)C(=O)[C@H](C2CCCCC2)N(C)C(=O)C2(CCCC2)NC(=O)[C@H](COCc2cncc(F)c2)N(C)C(=O)[C@H](CCc2ccc(C(F)(F)F)c(Cl)c2)NC(=O)CN(C)C(=O)[C@H](CC2CCCCC2)N(C)C(=O)CN(C)C(=O)CN(C)C1=O [Compound 950] ([NMeL]I[Sar][Sar][NMeCha][Sar][hPhe(3-Cl-4-CF3)][NMeS](X113)[Ac5c][NMeChg][NMeD]-Piperidide; lactam N-11)	> 500
CC[C@H](C)[C@@H]1NC(=O)[C@H](C)N(C)C(=O)C[C@@H](C(=O)N2CCCCC2)N(C)C(=O)[C@H](C2CCCCC2)N(C)C(=O)C2(CCCC2)NC(=O)[C@@H]2CCCN2C(=O)[C@H](CCc2cccc(Cl)c2)NC(=O)CN(C)C(=O)[C@H](CC2CCCCC2)N(C)C(=O)CN(C)C(=O)CN(C)C1=O [Compound 954] ([NMeA]I[Sar][Sar][NMeCha][Sar][hPhe(3-Cl)]P[Ac5c][NMeChg][NMeD]-Piperidide; lactam N-11)	> 500
CC[C@H](C)[C@@H]1NC(=O)[C@H](CC(C)C)N(C)C(=O)C[C@@H](COCC(=O)NC(C)(C)C)NC(=O)[C@H](C(C)C)N(C)C(=O)C2(CCCC2)NC(=O)[C@@H]2CCCN2C(=O)[C@H](CCc2ccc(C(F)(F)F)c(Cl)c2)NC(=O)CN(C)C(=O)[C@H](CC2CCCCC2)N(C)C(=O)CN(C)C(=O)CN(C)C1=O [Compound 955] ([NMeL]I[Sar][Sar][NMeCha][Sar][hPhe(3-Cl-4-CF3)]P[Ac5c][NMeV]; linker N-C via X37)	> 500
CC[C@H](C)[C@@H]1NC(=O)[C@H](CC(C)C)N(C)C(=O)C[C@@H](C(=O)N2CCCCC2)N(C)C(=O)[C@H](CC(C)C)NC(=O)C(C)(C)N(C)C(=O)[C@H](CC(C)C)NC(=O)[C@H](CCc2ccc(C(F)(F)F)c(F)c2)NC(=O)CN(C)C(=O)[C@H](CC2CCCCC2)N(C)C(=O)CN(C)C(=O)CN(C)C1=O [Compound 969] ([NMeL]I[Sar][Sar][NMeCha][Sar][hPhe(3-F,4-CF3)]L[NMeAib]L[NMeD]-Piperidide; lactam N-11)	> 500
CC[C@H](C)[C@@H]1NC(=O)[C@H](CC(C)C)N(C)C(=O)C[C@@H](C)NC(=O)[C@H](C(C)C)N(C)C(=O)C2(CCCC2)NC(=O)[C@@H]2CCCN2C(=O)[C@H](CCc2ccc(C(F)(F)F)c(Cl)c2)NC(=O)CN(C)C(=O)[C@H](CC2CCCCC2)N(C)C(=O)CN(C)C(=O)CN(CC(C)C)C1=O [Compound 970] (cyclo([Ac5c][NMeV][d(β3hA)][NMeL]I[Nleu][Sar][NMeCha][Sar][hPhe(3-Cl-4-CF3)]P))	> 500
CCCOC[C@H]1C(=O)N(C)CC(=O)N[C@@H](CCc2ccc(C(F)(F)F)c(Cl)c2)C(=O)N2CCC[C@H]2C(=O)NC2(CCCC2)C(=O)N(C)[C@@H](C2CCCC2)C(=O)N(C)[C@H](C(=O)N2CCOCC2)CC(=O)N(C)[C@@H](CC(C)C)C(=O)N[C@@H]([C@@H](C)CC)C(=O)N(C)[C@@H](C)C(=O)N2CC[C@H]2C(=O)N1C [Compound 974] ([NMeL]I[NMeA][Aze][NMeS](Propyl)[Sar][hPhe(3-Cl-4-CF3)]P[Ac5c][NMeGly(cPent)][NMeD]-Morpholide; lactam N-11)	≤ 20
